Results on two compounds are retold here after ChEMBL document CHEMBL4402609, “Optimization of Hydantoins as Potent Antimycobacterial Decaprenylphosphoryl-β-d-Ribose Oxidase (DprE1) Inhibitors” (J Med Chem, 2020).

Data set [1] can be described thus: AUC in C57BL/6J mouse blood infected with Mycobacterium tuberculosis H37Rv at 170 mg/kg, po administered once daily for 4 consecutive days starting from 5 days post infection and measured up to 6 hrs post dose. The class given is ADME, organism-based. Further details: time < 6 hr, dose 170 mg/kg, route oral.
A short description of data set [2]: Cmax in C57BL/6J mouse blood infected with Mycobacterium tuberculosis H37Rv at 170 mg/kg, po administered once daily for 4 consecutive days starting from 5 days post infection. The class given is ADME, organism-based. Details: dose 170 mg/kg, route oral.
The nature of data set [3]: Intrinsic clearance in human microsomes assessed as per gram protein at 0.5 uM after 30 mins in presence of NADPH by LC-MS/MS analysis. The class given is ADME, Microsome. Conditions: 0.5 h.
Data set [4] in a line: Intrinsic clearance in mouse microsomes assessed as per gram protein at 0.5 uM after 30 mins in presence of NADPH by LC-MS/MS analysis. Type of data set: ADME, Microsome. The note with it: 0.5 h.
Data set [5] is described as follows: AUC in C57BL/6J mouse blood infected with Mycobacterium tuberculosis H37Rv at 200 mg/kg, po administered once daily for 4 consecutive days starting from 5 days post infection and measured after 24 hrs post dose. Further details: dose 200 mg/kg, time < 24 hr, route oral. The class given is ADME, organism-based.
A short description of data set [6]: Cmax in C57BL/6J mouse blood infected with Mycobacterium tuberculosis H37Rv at 200 mg/kg, po administered once daily for 4 consecutive days starting from 5 days post infection. Type of data set: ADME, organism-based. Further details: dose 200 mg/kg, route oral.
Data set [7] can be described thus: Lipophilicity, log D of compound at pH 7.4 by chromatographic method. The class given is physicochemical. The note with it: buffer.

By AUC is commonly meant concentration integrated over time. Lower therefore signals low exposure. The term Cmax denotes the highest concentration seen after dosing. A word on the chromatographic logD: it is a lipophilicity value derived from retention on a column. Low values mean a more hydrophilic compound, high ones a more lipophilic compound.

In data set [1], `CC1(c2ccc(-n3cnnn3)cc2)NC(=O)N(CC(=O)c2ccc(F)cc2F)C1=O` (configuration not stated) returned an AUC at 6 h of 6380 ng·h/mL. Further, the peak level in data set [2] (Cmax) was 1870 ng/mL.

Consider `CC1(c2ccc(S(N)(=O)=O)cc2)NC(=O)N(CC(=O)c2ccc(F)cc2F)C1=O` (racemic), for which the results for the clearance in data set [3] and in data set [4] were less than 0.4 mL/min/g and 2.67 mL/min/g, respectively. In data set [5], this compound gave an exposure (AUC) at 24 h of 31400 ng·h/mL. This compound yielded a Cmax in data set [6] of 6380 ng/mL. The compound further came in with a chromatographic logD in data set [7] of 3.19.
